Where two headings read alike, the source gives them in different places. One block for each compound: values may come before it.
Experiments:
[1] = Measurement of tamoxifen metabolites in finger-prick blood (VAMS, UPLC-MS/MS); assay type: in vivo, human (Indonesian ER+ breast cancer patients); conditions: for range of metabolite levels before dose adjustment / range of metabolite levels after dose adjustment: IM patients (n=26); for range of metabolite levels before dose adjustment: tamoxifen 20 mg daily; for range of metabolite levels after dose adjustment: tamoxifen 40 mg daily for two months; for concentration at 8 weeks: human, whole blood (finger-prick, VAMS), oral, 40 mg daily, read-out: range of metabolite levels after dose adjustment
Method: Finger-prick blood sample was obtained using Volumetric Absorptive Microsampling (VAMS) technique. VAMS extraction was performed in methanol by sonication-assisted extraction method for 25 minutes after 2 hours of VAMS drying. Separation was carried out using Acquity UPLC BEH C1s column (2.1×100 mm; 1.7 μm), with a flow rate of 0.2 mL/minute, and the mobile phase gradient of formic acid 0.1% combined with formic acid 0.1% in acetonitrile for 5 minutes. The UPLC-MS/MS Waters Xevo TQD Triple Quadrupole with MassLynx Software controller (Waters, Milford, USA) was employed in metabolites measurement. Mass detection was carried out utilizing Triple Quadrupole (TOD) with Multiple Reaction Monitoring (MRM) analysis modes and an electrospray ionization source using positive mode. The method was developed in the Bioavailability and Bioequivalence Laboratory of Universitas Indonesia and validated according to FDA and EMA guidelines. The multiple reaction monitoring (MRM) value were set at m/z 372.28>72.22 for TAM; 374.29>58.22 for END; 388.29>72.19 for 4-HT; 358.22>58.09 for NDT; and 260.20>116.20 for propranolol as the internal standard.
(§1) This group of patients were determined based on clinical judgement according to the available guidelines by The National Surgical Oncologist Organization and Ministry of Health in Indonesia (Komite Penanggulangan Kanker Nasional, n.d.), National Comprehensive Cancer Network (NCCN, 2021), and British Columbia Cancer Agency.
(§2) Data and statistical analysis were performed using Microsoft® Excel® for Microsoft 365 and R version 4.0.3. Deviation from Hardy-Weinberg equilibrium was performed on the haplotype frequencies using the chi-square statistical test, where Bonferonni correction was applied to determine the p-value threshold for significant deviation. Analysis of Variance (ANOVA) test was used to see if metabolite levels distribution at baseline were statistically different across all metabolites, followed by a paired T-test between each pair of metabolites when significance was found. Distribution of metabolite levels before and after dose adjustment was compared using a T-test, and the same test was used to compare the distribution of metabolite levels in IMs post-dose adjustment against NMs (baseline). Concerning symptoms related to endocrine therapy post-dose adjustment on IMs were compared against NMs. Chi-square test was performed per symptom to check for the difference between the two groups.

[2] = Endocrine symptoms / side effects of tamoxifen therapy, FACT-ES questionnaire; assay type: in vivo, human (Indonesian ER+ breast cancer patients)
Method: as §1, §2

[3] = cited from earlier work
[4] = CYP2D6 Intermediate Metabolizer (N = 61), baseline
[5] = CYP2D6 Normal Metabolizer (N = 81), baseline
[6] = CYP2D6 Poor Metabolizer (N = 2), baseline
[7] = IM participants, 40 mg tamoxifen daily (N = 22), eight weeks after dose adjustment
[8] = IM participants, 40 mg tamoxifen daily, eight weeks after dose adjustment
[9] = IMs, 40 mg tamoxifen daily, n=26
[10] = NM participants, 20 mg tamoxifen daily (N = 31)
[11] = NMs, 20 mg tamoxifen daily, n=31

Peripheral Whole Blood Concentration, Median [1, 4]: 241.55 ng/mL | Peripheral Whole Blood Concentration, Range [1, 4]: 77.61 to 337.29 ng/mL | Peripheral Whole Blood Concentration, Median [1, 5]: 240.59 ng/mL | Peripheral Whole Blood Concentration, Range [1, 5]: 80.63 to 321.88 ng/mL | Peripheral Whole Blood Concentration, Median [1, 6]: 276.45 ng/mL | Peripheral Whole Blood Concentration, Range [1, 6]: 212.5 to 340.41 ng/mL
Compound: CC/C(=C(\c1ccccc1)c1ccc(OCCNC)cc1)c1ccccc1 [ND-tam]

range of metabolite levels before dose adjustment [1]: 1.5 to 9.31 ng/mL | range of metabolite levels after dose adjustment [1]: 3.34 to 12.99 ng/mL
Compound: 4-hydroxytamoxifen

Peripheral Whole Blood Concentration, Median [1, 4]: 81.72 ng/mL | Peripheral Whole Blood Concentration, Range [1, 4]: 14.22 to 210.39 ng/mL | Peripheral Whole Blood Concentration, Median [1, 5]: 77.46 ng/mL | Peripheral Whole Blood Concentration, Range [1, 5]: 31.22 to 170.82 ng/mL | Peripheral Whole Blood Concentration, Median [1, 6]: 91.49 ng/mL | Peripheral Whole Blood Concentration, Range [1, 6]: 67.49 to 115.48 ng/mL | range of metabolite levels before dose adjustment [1]: 14.22 to 210.39 ng/mL | concentration at 8 weeks [1]: 80.6 to 255 ng/mL
Compound: CC/C(=C(\c1ccccc1)c1ccc(OCCN(C)C)cc1)c1ccccc1 [tamoxifen]
toxicity or side effects on dose escalation ([2]; 40 mg daily versus 20 mg daily, eight weeks after dose adjustment): did not increase potential toxicity or side effects | Cold Sweats: Patients reported side effect (%) [2, 7]: 19.23% | Diarrhea: Patients reported side effect (%) [2, 7]: 0.00% | Headaches: Patients reported side effect (%) [2, 7]: 53.85% | Hot Flashes: Patients reported side effect (%) [2, 7]: 50.00% | Lightheaded (dizzy): Patients reported side effect (%) [2, 7]: 34.62% | Mood swings: Patients reported side effect (%) [2, 7]: 65.38% | Pain in joints: Patients reported side effect (%) [2, 7]: 50.00% | Pain or discomfort with intercourse: Patients reported side effect (%) [2, 7]: 3.85% | Breast sensitivity/tenderness: Patients reported side effect (%) [2, 8]: 53.85% | Irritable: Patients reported side effect (%) [2, 8]: 61.54% | Lost interest in sex: Patients reported side effect (%) [2, 8]: 15.38% | Night sweats: Patients reported side effect (%) [2, 8]: 26.92% | Vaginal bleeding or spotting: Patients reported side effect (%) [2, 8]: 23.08% | Vaginal discharge: Patients reported side effect (%) [2, 8]: 42.31% | Vaginal dryness: Patients reported side effect (%) [2, 8]: 11.54% | Vaginal itching/irritation: Patients reported side effect (%) [2, 8]: 15.38% | Vomiting: Patients reported side effect (%) [2, 8]: 3.85% | Weight gain: Patients reported side effect (%) [2, 8]: 65.38% | breast sensitivity or tenderness, participants reporting [2, 9]: 53.85% | cold sweats, participants reporting [2, 9]: 19.23% | headaches, participants reporting [2, 9]: 53.85% | hotflush, participants reporting [2, 9]: 50% | irritability, participants reporting [2, 9]: 61.54% | lightheaded/dizziness, participants reporting [2, 9]: 34.62% | lost interest in sex, participants reporting [2, 9]: 15.38% | mood swings, participants reporting [2, 9]: 65.83% | night sweats, participants reporting [2, 9]: 26.92% | pain in joints, participants reporting [2, 9]: 50% | pain or discomfort during intercourse, participants reporting [2, 9]: 3.85% | vaginal bleeding or spotting, participants reporting [2, 9]: 23.08% | vaginal discharge, participants reporting [2, 9]: 42.31% | vaginal dryness, participants reporting [2, 9]: 11.54% | vaginal itching or irritation, participants reporting [2, 9]: 15.38% | vomiting, participants reporting [2, 9]: 3.85% | weight gain, participants reporting [2, 9]: 65.83% | diarrhea, participants reporting ([2]; IMs, 40 mg tamoxifen daily, post-dose adjustment): No post-dose adjustment participants reported diarrhea | Breast sensitivity/tenderness: Patients reported side effect (%) [2, 10]: 41.94% | Cold Sweats: Patients reported side effect (%) [2, 10]: 12.90% | Diarrhea: Patients reported side effect (%) [2, 10]: 3.23% | Headaches: Patients reported side effect (%) [2, 10]: 29.03% | Hot Flashes: Patients reported side effect (%) [2, 10]: 35.48% | Irritable: Patients reported side effect (%) [2, 10]: 58.06% | Lightheaded (dizzy): Patients reported side effect (%) [2, 10]: 35.48% | Lost interest in sex: Patients reported side effect (%) [2, 10]: 64.52% | Mood swings: Patients reported side effect (%) [2, 10]: 74.19% | Night sweats: Patients reported side effect (%) [2, 10]: 29.03% | Pain in joints: Patients reported side effect (%) [2, 10]: 67.74% | Pain or discomfort with intercourse: Patients reported side effect (%) [2, 10]: 51.61% | Vaginal bleeding or spotting: Patients reported side effect (%) [2, 10]: 16.13% | Vaginal dryness: Patients reported side effect (%) [2, 10]: 32.26% | Vaginal itching/irritation: Patients reported side effect (%) [2, 10]: 22.58% | Vomiting: Patients reported side effect (%) [2, 10]: 6.45% | Weight gain: Patients reported side effect (%) [2, 10]: 64.52% | breast sensitivity or tenderness, respondents reporting [2, 11]: 41.94% | cold sweats, respondents reporting [2, 11]: 12.9% | diarrhea, respondents reporting [2, 11]: 3.23% | headaches, respondents reporting [2, 11]: 29.03% | hotflush, respondents reporting [2, 11]: 35.48% | irritability, respondents reporting [2, 11]: 58.06% | lightheaded/dizziness, respondents reporting [2, 11]: 35.48% | lost interest in sex, respondents reporting [2, 11]: 64.52% | mood swings, respondents reporting [2, 11]: 74.19% | night sweats, respondents reporting [2, 11]: 29.03% | pain in joints, respondents reporting [2, 11]: 67.74% | pain or discomfort during intercourse, respondents reporting [2, 11]: 51.61% | vaginal bleeding or spotting, respondents reporting [2, 11]: 16.13% | vaginal dryness, respondents reporting [2, 11]: 32.26% | vaginal itching or irritation, respondents reporting [2, 11]: 22.58% | vomiting, respondents reporting [2, 11]: 6.45% | thrombophlebitis, thrombosis, endometriosis, and endometrial cancer ([2]; observed population, short follow up): none of these side effects were observed

Peripheral Whole Blood Concentration, Median [1, 4]: 3.27 ng/mL | Peripheral Whole Blood Concentration, Range [1, 4]: 1.5 to 9.31 ng/mL | Peripheral Whole Blood Concentration, Median [1, 5]: 3.07 ng/mL | Peripheral Whole Blood Concentration, Range [1, 5]: 1.5 to 7.66 ng/mL | Peripheral Whole Blood Concentration, Median [1, 6]: 3.24 ng/mL | Peripheral Whole Blood Concentration, Range [1, 6]: 3.06 to 3.43 ng/mL
Compound: CC/C(=C(\c1ccc(O)cc1)c1ccc(OCCN(C)C)cc1)c1ccccc1 [4OH-tam]

range of metabolite levels before dose adjustment [1]: 77.61 to 337.29 ng/mL | range of metabolite levels after dose adjustment [1]: 236.8 to 501.9 ng/mL
Compound: CC/C(=C(\c1ccccc1)c1ccc(OCCNC)cc1)c1ccccc1 [N-desmethyltamoxifen]

Peripheral Whole Blood Concentration, Median [1, 4]: 8.33 ng/mL | Peripheral Whole Blood Concentration, Range [1, 4]: 3.17 to 22.97 ng/mL | Peripheral Whole Blood Concentration, Median [1, 5]: 11.98 ng/mL | Peripheral Whole Blood Concentration, Range [1, 5]: 3.55 to 34.77 ng/mL | Peripheral Whole Blood Concentration, Median [1, 6]: 4.52 ng/mL | Peripheral Whole Blood Concentration, Range [1, 6]: 3.94 to 5.11 ng/mL | range of metabolite levels before dose adjustment [1]: 3.17 to 22.97 ng/mL | endoxifen levels in NMs at baseline ([1]; NM patients (n=81), tamoxifen 20 mg/day, baseline): 3.55 to 34.77 ng/mL | concentration at 8 weeks [1]: 7.68 to 23.4 ng/mL | average endoxifen level of IMs ([1]; this study, IMs): 9.6 ng/mL
Compound: CC/C(=C(\c1ccc(O)cc1)c1ccc(OCCNC)cc1)c1ccccc1 [endoxifen, 4-hydroxy-N-desmethyltamoxifen]
average endoxifen level of IMs ([3]; previous study): 8.1 ng/mL | range of endoxifen level ([3]; study in Singaporean population): 1.74 to 42.8 ng/mL | range of endoxifen level ([3]; study in Swedish population): 2.3 to 16 ng/mL
